Laboratory results: paper PMC8495455, “Discovery of a transdermally deliverable pentapeptide for activating AdipoR1 to promote hair growth” (EMBO Molecular Medicine, 2021)

Columns and labels:
HGF mRNA = test: qRT-PCR growth factor gene expression in DP cells, HGF; assay type: cell-based, human; conditions: for mRNA_HGF: DP cells
Excerpt: (§1) Next, we investigated the downstream effects of P5 on hair growth factor genes and proteins in DP cells. […] We tested whether P5 can also increase the mRNA levels and proteins of hair growth factors in DP cells: IGF‐1, VEGF, HGF, platelet‐derived growth factor alpha (PDGFA), and fibroblast growth factor (FGF) 7, which are known to induce or maintain the anagen phase of the hair cycle (Jindo et al, [1994]; Philpott et al, [1994]; Yano et al, [2001]; Jang, [2005]; Tomita et al, [2006]; Iino et al, [2007]).
Total RNA was isolated from P5‐treated DP cells using RNAiso Plus (#9109; TaKaRa). We used the total RNA (1 µg) for cDNA synthesis using a RevertAid First Strand cDNA Synthesis Kit (Thermo Fisher) according to the manufacturer's instructions. The mRNA expression levels were quantified on a 7500 Real‐time PCR System (Thermo Fisher) using TB Green Premix Ex Taq (TaKaRa Bio): human IGF‐1, VEGF, HGF, PDGFA, FGF7, and glyceraldehyde 3‐phosphate dehydrogenase (GAPDH) (Appendix Table S2). The relative expression levels of each gene were determined by the 2^‐ΔΔCT method.

VEGF protein = test: Growth factor protein quantitation in DP cell medium, VEGF; assay type: cell-based, human; conditions: for protein_VEGF: DP cell medium
Excerpt: as §1
(§2) Human DP cells were grown on a 100‐mm cell culture dish to 100% confluency. After washed by PBS three times, the cells were cultured with serum‐free DMEM and treated with P5. After 48 h, the medium was collected and filtered by a […]. The filtrate was then concentrated using a centrifugal concentrator (Vivaspin 6, 10‐kDa molecular weight cutoff, centrifuged 2,600 g at 4°C for 13 min, Sartorius Stedim Biotech). The signals of each protein in the concentrated media were detected and quantified, based on the enzyme‐linked immunosorbent assay (Human Cytokine Antibody Array C2000, RayBiotech).

HGF protein = test: Growth factor protein quantitation in DP cell medium, HGF; assay type: cell-based, human; conditions: for protein_HGF: DP cell medium
Excerpt: as §1, §2

human scalp HFs = test: Ex vivo human HF organ culture, hair shaft elongation; assay type: cell-based; conditions: 6 days, vs vehicle
Description: (§3) We next investigated whether P5 can reproduce the effects of APN on hair growth promotion ex vivo (Won et al, [2012]) using ex vivo human HF organ culture model. […] The Ki‐67‐positive cell portion of the matrix area in the P5‐treated HFs was higher than that in the vehicle‐treated group (Fig 3E).
The microdissected full‐length scalp HFs in anagen VI were cut at the level of sebaceous duct and then ex vivo cultured for 6 days at 37°C in a 5% CO2 atmosphere in Williams E medium (#12551032, Gibco) supplemented with hydrocortisone (10 ng/ml), insulin (10 µg/ml), L‐glutamine (2 mM), and penicillin‐streptomycin solution (1×). To avoid any potential bias in the length measurement from pseudo‐catagen progression, the total length of pigmented hair shaft of each HF was measured every three days to calculate the net length of elongated hair shaft and photographed in culture day 6 using a stereomicroscope (Olympus).

[1] = tested on: p-AMPK in ORS and DP cells of human HFs; test: IF staining p-AMPK of ex vivo cultured HF bulb; assay type: cell-based; conditions: vs vehicle
Excerpt: as §3
Paraffin‐embedded mouse cutaneous back tissue was sectioned (4 μm thickness) and stained with hematoxylin and eosin. For IF staining, human ORS cells cultured in FiTC‐P5, sectioned paraffin‐embedded human HFs (7 μm thickness), and sectioned paraffin‐embedded mouse cutaneous dorsal tissue or human skin tissue (5 μm thickness) were incubated at 4°C overnight with the following primary antibodies diluted in the diluent reagent (Invitrogen): phospho‐AMPK (#2535, 1:100; Cell Signaling), Ki‐67 (#M7240, 1:200; Dako), versican (#ab177480, 1:200; Abcam), or AdipoR1 antibody (#ab126611, 1:200; Abcam). After three washes with PBS, the slides were incubated with the secondary Alexa Fluor 488‐labeled anti‐mouse or rabbit IgG antibody (#ab150077, #ab150113, 1:200; Invitrogen), or Alexa Fluor 594‐labeled anti‐rabbit IgG antibody (#a11012, 1:200; Invitrogen) at 25°C for 1 h. Nuclei were counterstained with 4′,6‐diamidino‐2‐phenylindole (DAPI; #D1306, 1:1,000; Invitrogen). […] IF intensity was observed and recorded with a Nikon Eclipse Ni‐E fluorescence microscope (Nikon).

[2] = P5 5μM, relative to Control = 1, replicate 1
[3] = P5 5μM, relative to Control = 1, replicate 2
[4] = P5 5μM, relative to Control = 1, replicate 3
[5] = P5 25μM, relative to Control = 1, replicate 1
[6] = P5 25μM, relative to Control = 1, replicate 2
[7] = P5 25μM, relative to Control = 1, replicate 3
[8] = P5-treated DP cells, 48 h medium, n = 3

Substance: GLYYF [P5, GST-fused (GST-P5) in pulldown assays]
- mRNA_HGF (HGF mRNA; [2]): 3.441
- mRNA_HGF (HGF mRNA; [3]): 1.115
- mRNA_HGF (HGF mRNA; [4]): 3.233
- mRNA_HGF (HGF mRNA; P5 5μM, relative to Control = 1, replicate 4): 5.51
- mRNA_HGF (HGF mRNA; P5 5μM, relative to Control = 1, replicate 5): 1.947
- mRNA_HGF (HGF mRNA; P5 5μM, relative to Control = 1, replicate 6): 1.893
- mRNA_HGF (HGF mRNA; [5]): 6.428
- mRNA_HGF (HGF mRNA; [6]): 1.581
- mRNA_HGF (HGF mRNA; [7]): 2.359
- mRNA_HGF (HGF mRNA; P5 25μM, relative to Control = 1, replicate 4): 5.518
- mRNA_HGF (HGF mRNA; P5 25μM, relative to Control = 1, replicate 5): 2.408
- mRNA_HGF (HGF mRNA; P5 25μM, relative to Control = 1, replicate 6): 2.218
- HGF mRNA expression (HGF mRNA; P5-treated DP cells, n = 6): significantly increased
- protein_VEGF (VEGF protein; [2]): 1.476
- protein_VEGF (VEGF protein; [3]): 1.303
- protein_VEGF (VEGF protein; [4]): 1.526
- protein_VEGF (VEGF protein; [5]): 1.967
- protein_VEGF (VEGF protein; [6]): 2.185
- protein_VEGF (VEGF protein; [7]): 1.674
- VEGF protein expression level (VEGF protein; [8]): elevated
- protein_HGF (HGF protein; [2]): 1.103
- protein_HGF (HGF protein; [3]): 1.31
- protein_HGF (HGF protein; [4]): 1.677
- protein_HGF (HGF protein; [5]): 1.711
- protein_HGF (HGF protein; [6]): 2.432
- protein_HGF (HGF protein; [7]): 3.924
- HGF protein expression level (HGF protein; [8]): elevated
- Hair shaft growth ex vivo (human scalp HFs): significantly promoted hair shaft growth ex vivo
- p-AMPK in HF bulb (IF staining) [1]: prominently detected in ORS and DP cells
